In article PMC9228412, “Synthesis and Activity of Triazole-Adenosine Analogs as Protein Arginine Methyltransferase 5 Inhibitors” (Molecules, 2022):
Where two headings read alike, the source gives them in different places.

Experiments:
[1] = system: PRMT5; conditions: cited from earlier work
[2] = target: PRMT1 (Homo sapiens, UniProt Q99873); assay: scintillation proximity assay (SPA) of PRMT1 methyltransferase activity; type: biochemical; conditions: for remaining activity at 10 µM: 0.5 h, remaining activity of the enzyme, single point SPA test, inhibitor 10 μM, read-out: Relative Activity of PRMT1 at 10 μM
Sequence of PRMT1 (Q99873 whole entry, species assumed): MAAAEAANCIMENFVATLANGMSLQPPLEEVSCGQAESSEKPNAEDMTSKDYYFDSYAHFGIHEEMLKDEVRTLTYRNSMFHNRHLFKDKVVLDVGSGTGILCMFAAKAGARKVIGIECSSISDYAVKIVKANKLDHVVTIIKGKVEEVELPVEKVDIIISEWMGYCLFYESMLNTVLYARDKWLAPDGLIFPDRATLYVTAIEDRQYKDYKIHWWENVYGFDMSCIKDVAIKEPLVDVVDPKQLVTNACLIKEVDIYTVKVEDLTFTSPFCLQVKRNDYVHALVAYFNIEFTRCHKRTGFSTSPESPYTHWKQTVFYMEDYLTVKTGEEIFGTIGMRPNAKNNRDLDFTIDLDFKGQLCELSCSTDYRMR
Description: (§1) The methyltransferase activities of PRMT5 and PRMT1 in the absence and presence of the synthetic inhibitors were measured by using the scintillation proximity assay (SPA) protocol (Table 1). In the initial test, the inhibitor concentration was set at 10 μM. H4(1–20)K20biotin [Ac-[…](biotin)-NH2] was used as the peptide substrate, at a final concentration of 0.5 μM. ^3H-SAM was used as the methyl donor at 0.5 μM. SAH was used as a control inhibitor. […] Analysis of the biochemical activity results against PRMT5 disclosed a few interesting structure–activity relationship (SAR) trends. […] If the hydroxyl group of 3 was changed to an amine (6), the potency was improved; however, the selectivity was abolished. Generally, compounds that contained positive charges (6, 20, 21, 22, 24) near the triazole ring had further improved potencies.
Inhibitor was dissolved in water to create a 10 mM stock concentration. This was then diluted in buffer (50 mM HEPES pH 8, 10 mM NaCl, 0.5 mM EDTA, 0.5 mM DTT in H2O) to create a series of working concentrations centered around an anticipated IC50. [H]^3-SAM and substrate were diluted together in buffer to working concentrations of […], respectively. To each well in a 96-well plate, 6 μL of the inhibitor solution was added, with negative and positive controls receiving buffer. In total, 6 μL of the [H]^3-SAM/substrate solution was then added to each well. The enzyme was then diluted in buffer to a working concentration of 0.83 μM, and 18 μL was added to each well, with negative controls receiving 18 μL of buffer. The plate was covered, and the reaction was allowed to run for 30 min and was then quenched with the addition of 30 μL of 100% iPrOH followed by 60 μL of 50% iPrOH in H2O. In total, 10 μL of 20 mg/mL streptavidin-coated scintillant beads were added and the plate was read using a MicroBeta (Perkin Elmer, Waltham, MA, USA) plate reader. The CPM counts in the absence of an inhibitor for each data set were considered as 100% activity. In the absence of the enzyme and inhibitor, the CPM counts in each data set were defined as background (0%).

[3] = target: T1, PRMT5 (Homo sapiens, UniProt O14744); assay: scintillation proximity assay (SPA) of PRMT5 methyltransferase activity; type: biochemical; conditions: for remaining activity at 10 µM: 0.5 h, remaining activity of the enzyme, single point SPA test, inhibitor 10 μM, read-out: Relative Activity of PRMT5 at 10 μM
T1 construct: His-tag; made in house; host or cells: Sf9 insect cells (Bac-to-Bac baculovirus)
T1 sequence (O14744 whole entry): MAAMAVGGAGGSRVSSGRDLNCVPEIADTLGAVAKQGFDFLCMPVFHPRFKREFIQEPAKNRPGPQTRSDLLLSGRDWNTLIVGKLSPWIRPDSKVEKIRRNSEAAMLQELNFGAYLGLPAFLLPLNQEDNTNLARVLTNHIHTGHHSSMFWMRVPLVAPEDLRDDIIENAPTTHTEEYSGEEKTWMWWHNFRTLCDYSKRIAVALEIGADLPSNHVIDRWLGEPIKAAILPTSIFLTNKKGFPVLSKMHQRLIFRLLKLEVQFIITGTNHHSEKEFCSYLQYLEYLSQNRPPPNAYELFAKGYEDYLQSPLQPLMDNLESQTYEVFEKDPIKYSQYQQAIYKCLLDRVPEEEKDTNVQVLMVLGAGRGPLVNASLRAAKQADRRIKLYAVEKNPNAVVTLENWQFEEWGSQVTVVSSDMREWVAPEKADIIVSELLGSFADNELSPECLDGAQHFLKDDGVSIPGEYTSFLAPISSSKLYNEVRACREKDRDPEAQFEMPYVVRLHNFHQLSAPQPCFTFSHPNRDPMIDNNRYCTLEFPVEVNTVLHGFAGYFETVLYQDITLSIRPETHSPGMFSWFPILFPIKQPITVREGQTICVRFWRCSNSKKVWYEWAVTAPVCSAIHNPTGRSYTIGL
T1 sequence (Q9BQA1 whole entry partner): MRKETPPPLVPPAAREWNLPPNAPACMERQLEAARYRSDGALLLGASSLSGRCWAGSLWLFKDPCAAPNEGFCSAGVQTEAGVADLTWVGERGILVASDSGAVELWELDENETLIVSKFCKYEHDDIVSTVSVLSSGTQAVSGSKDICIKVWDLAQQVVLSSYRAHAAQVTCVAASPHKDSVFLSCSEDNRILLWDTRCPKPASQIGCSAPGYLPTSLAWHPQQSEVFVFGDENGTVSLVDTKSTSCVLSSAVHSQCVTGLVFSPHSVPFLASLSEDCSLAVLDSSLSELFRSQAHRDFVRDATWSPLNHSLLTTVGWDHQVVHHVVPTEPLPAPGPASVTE
Description: as §1
Human recombinant His-tag PRMT5 was co-expressed with His-tag MEP50 using the Bac-to-Bac baculovirus expression system (Invitrogen, Life Technologies, Carlsbad, CA, USA) as previously described. Briefly, pFB-LIC-Bse-PRMT5 and pFB-LIC-Bse-MEP50 were heat shock transformed in the DH10Bac E. coli to obtain the recombinant bacmids, and the bacmids were extracted using the PureLink HiPure Plasmid Miniprep Kit (Invitrogen, Thermo Scientific, Carlsbad, CA, USA). The purity and concentration of the plasmid were measured by a Nanodrop. Sf9 cells were cultured in Sf-900 II SFM medium until the cell density reached 1.5 × 10^6 cells/mL and cell viability was more than 95%. Cells were plated in a 6-well tissue culture plate at a density of 4 × 10^5 cells/mL per well. In total, 2 µg of PRMT5 and MEP50 recombinant bacmid were transfected into each well of cells. After 5 h of transfection, the transfection medium was replaced by 2 mL of Sf-900 II SFM + 100 U P/S per well. The medium was collected and centrifuged at 1000 rpm for 5 min to obtain the supernatant P1 viral stock after 7 days of inoculation at 27.5 °C. To obtain a higher titer of viral stock, P1 viral stock was amplified in a 6-well tissue culture plate containing 2 × 10^6 cells per well. In total, 0.1 MOI of P1 virus stock was added into each well. After 7 days of incubation at 27.5 °C, the cell medium was centrifuged at 1000 rpm for 5 min to obtain the P2 viral stock in the supernatant. The Baculovirus plaque assay was performed to determine the viral titer concentration; the target concentration range was 1 × 10^7–1 × 10^8 IFU/mL.
For the expression of PRMT5 and MEP50, Sf9 insect cells were cultured in suspension at 27.5 °C at a speed of 130 rpm in Expression Systems ESF 921 medium with 100 U P/S. In total, 200 mL of Sf9 cell culture was inoculated with PRMT5 and MEP50 P2 viral stocks when the cell density reached 1.5 × 10^6 cells/mL. After incubation for 72 h at 27.5 °C, the cells were harvested and centrifuged. PRMT5 and MEP50 protein were collected in the cell pellet for further purification. Cell pellets were disrupted twice at 100 psi in 25 mL of cell lysis buffer (50 mM Tris pH 8, 300 mM NaCl, 10% glycerol, 0.1% Triton X-100, 1 mM PMSF). Before the Ni-NTA purification, 10 mL of Ni-NTA resin (EMD Millipore, Burlington, MA, USA) was loaded into a 50 mL column and equilibrated with equilibration buffer (50 mM Tris pH 8, 250 mM NaCl, 30 mM Imidazole, 10% glycerol, 1 mM TCEP, 1 mM PMSF). After 60 min of cell lysate centrifugation at 4 °C at 18,000 rpm, the cell lysate supernatant was incubated with the equilibrated nickel resin. The resin was washed with equilibration buffer and protein was eluted with elution buffer (50 mM Tris pH 8, 250 mM NaCl, 300 mM Imidazole, 10% glycerol, 1 mM TCEP, 1 mM PMSF). For the dialysis of protein, elution samples were loaded into a 10,000 MWCO SnakeSkin (Thermo Scientific, Waltham, MA, USA) dialysis bag in the storage buffer (50 mM Tris pH 8, 250 mM NaCl, 10% glycerol, 1 mM TCEP). […]

[4] = system: 29 other human methyltransferases; parameters: method as in PMID 25893041; conditions: cited from earlier work
[5] = parameters: method as in PMID 25915199; conditions: cited from earlier work
[6] = system: BCR-ABL-driven CML; parameters: method as in PMID 27643437; conditions: murine model of BCR-ABL-driven CML; cited from earlier work
[7] = SPA, concentration-dependent, read-out: IC50 PRMT1 (converted)
[8] = SPA, concentration-dependent, 0.5 μM H4(1–20)K20biotin, 0.5 μM 3H-SAM, read-out: IC50 PRMT5 (converted)
[9] = 0.5 μM H4(1–20)K20biotin, 0.5 μM 3H-SAM

Compound: CCn1c2ccccc2c2cc(CNCc3ccccn3)ccc21 [CMP5]
- potency [1]: 50 µM

Compound: Nc1ncnc2c1ncn2[C@@H]1O[C@H](Cn2cc(C[C@H](N)C(=O)O)nn2)[C@@H](O)[C@H]1O [Compound 19, (S)-2-amino-3-(1-(((2R,3S,4R,5R)-5-(6-amino-9H-purin-9-yl)-3,4-dihydroxytetrahydrofuran-2-yl)methyl)-1H-1,2,3-triazol-4-yl)propanoic acid]
- IC50 [2, 7]: > 200 µM
- IC50 [3, 8]: 18.9 µM

Compound: CC(C)[C@H](N)C(=O)OCc1cn(C[C@H]2O[C@@H](n3cnc4c(N)ncnc43)[C@H](O)[C@@H]2O)nn1 [Compound 20, (1-(((2R,3S,4R,5R)-5-(6-amino-9H-purin-9-yl)-3,4-dihydroxytetrahydrofuran-2-yl)methyl)-1H-1,2,3-triazol-4-yl)methyl L-valinate]
- remaining activity at 10 µM [2]: 111 ± 5.5%
- IC50 [2, 7]: 43.5 µM
- remaining activity at 10 µM [3, 9]: 26 ± 0.45%
- IC50 [3, 8]: 0.88 µM
- selectivity for PRMT5 over PRMT1 ([3]; ratio of IC50 values): approximately 49 fold

Compound: Cc1cccc(NC(=O)CNCc2cn(C[C@H]3O[C@@H](n4cnc5c(N)ncnc54)[C@H](O)[C@@H]3O)nn2)c1 [Compound 21, 2-(((1-(((2R,3S,4R,5R)-5-(6-amino-9H-purin-9-yl)-3,4-dihydroxytetrahydrofuran-2-yl)methyl)-1H-1,2,3-triazol-4-yl)methyl)amino)-N-(m-tolyl)acetamide]
- remaining activity at 10 µM [2]: 84 ± 55%
- remaining activity at 10 µM [3, 9]: 32 ± 3.3%

Compound: COC(=O)c1ccc(CNCc2cn(C[C@H]3O[C@@H](n4cnc5c(N)ncnc54)[C@H](O)[C@@H]3O)nn2)cc1 [Compound 22, Methyl 4-((((1-(((2R,3S,4R,5R)-5-(6-amino-9H-purin-9-yl)-3,4-dihydroxytetrahydrofuran-2-yl)methyl)-1H-1,2,3-triazol-4-yl)methyl)amino)methyl)benzoate]
- remaining activity at 10 µM [2]: 94.2 ± 2.2%
- IC50 [2, 7]: 130 µM
- remaining activity at 10 µM [3, 9]: 30 ± 1.7%
- IC50 [3, 8]: 1.3 µM

Compound: Nc1ncnc2c1ncn2[C@@H]1O[C@H](Cn2cc(CNC(=O)Nc3ccc(Cl)cc3)nn2)[C@@H](O)[C@H]1O [Compound 23]
- remaining activity at 10 µM [2]: 91.8 ± 16%
- remaining activity at 10 µM [3, 9]: 70 ± 5.6%

Compound: Nc1ncnc2c1ncn2[C@@H]1O[C@H](Cn2cc(CNCC(=O)Nc3ccccc3F)nn2)[C@@H](O)[C@H]1O [Compound 24, 2-(((1-(((2R,3S,4R,5R)-5-(6-amino-9H-purin-9-yl)-3,4-dihydroxytetrahydrofuran-2-yl)methyl)-1H-1,2,3-triazol-4-yl)methyl)amino)-N-(2-fluorophenyl)acetamide]
- remaining activity at 10 µM [2]: 93 ± 1.3%
- remaining activity at 10 µM [3, 9]: 40 ± 3.6%
- IC50 [3, 8]: 13.2 µM

Compound: CC(C)(C)OC(=O)NCC(=O)NCc1cn(C[C@H]2O[C@@H](n3cnc4c(N)ncnc43)[C@H](O)[C@@H]2O)nn1 [Compound 25]
- remaining activity at 10 µM [2]: 99.1 ± 13%
- remaining activity at 10 µM [3, 9]: 72 ± 9.6%

Compound: Nc1cc2c(cc1F)OCC(=O)N2Cc1cn(C[C@H]2O[C@@H](n3cnc4c(N)ncnc43)[C@H](O)[C@@H]2O)nn1 [Compound 26]
- remaining activity at 10 µM [2]: 100 ± 4.6%
- remaining activity at 10 µM [3, 9]: 83 ± 2.5%

Compound: CC(C)(C)OC(=O)NCCS(=O)(=O)Cc1cn(C[C@H]2O[C@@H](n3cnc4c(N)ncnc43)[C@H](O)[C@@H]2O)nn1 [Compound 28]
- remaining activity at 10 µM [2]: 77 ± 23%
- remaining activity at 10 µM [3, 9]: 76 ± 11%

Compound: CC(=O)N[C@@H](CCCNC(=N)N)C(=O)N[C@@H](CCCNC(=N)N)C(=O)N[C@@H](Cc1cn(C[C@H]2O[C@@H](n3cnc4c(N)ncnc43)[C@H](O)[C@@H]2O)nn1)C(=O)N[C@@H](CCCNC(=N)N)C(=O)N[C@@H](CCCNC(=N)N)C(N)=O [Compound 29]
- IC50 [2]: > 400 µM
- IC50 [3]: 53.7 µM

Compound: CC(=O)N[C@@H](CO)C(=O)NCC(=O)N[C@@H](Cc1cn(C[C@H]2O[C@@H](n3cnc4c(N)ncnc43)[C@H](O)[C@@H]2O)nn1)C(=O)NCC(=O)N[C@@H](CCCCN)C(N)=O [Compound 30]
- IC50 [2]: 46.1 µM
- IC50 [3]: 45.6 µM

Compound: CCNC(=O)NCCSC[C@H]1O[C@@H](n2cnc3c(N)ncnc32)[C@H](O)[C@@H]1O [DS-437]
- activity towards 29 other human methyltransferases [4]: inactive
- IC50 ([1]; dual PRMT5/PRMT7 inhibitor): 6 µM

Compound: OC(COc1cccc(CNC2CCCC2)c1)CN1CCc2ccccc2C1 (centres unmarked) [EPZ007345]
- potency [1]: 0.326 µM
- in vitro clearance [5]: poor

Compound: Nc1nc2cc(CC[C@H]3C[C@@H](n4ccc5c(N)ncnc54)[C@H](O)[C@@H]3O)ccc2cc1Br [JNJ-64619178]
- IC50 ([1]; bisubstrate inhibitor): 0.00015 µM

Compound: CCn1c2ccccc2c2cc(CNC3CCCc4ccccc43)ccc21 (centres unmarked) [PJ-68]
- survival [6]: significant increase in survival
